Results published in patent US7259265B2, “Coumarin compounds and method for preparing and using the same” (Shanghai Institute of Organic Chemistry, Chinese Academy of …, priority 2003, dated 2007).
Values after ≈ are worked out from the molar mass of the structure shown. Where two headings read alike, the source gives them in different places.

Tests used:
candida Albicans [1] = assay: Inhibiting zone on candida Albicans; format: cell-based; details: at the concentration of 10 μg/ml
Description: [drawing 30] was tested by Jiangsu Hengrui Pharmaceutical Co., Ltd. The bioactivity against fungal infection of various antibiotics were tested.

candida Albicans 02-6 [2] = assay: In vivo protective test in infected mice; details: for ED50: infection 2.07 × 10^4 CFU/ml; for Survival: 10 mice, within 7 days after infection
Description: 2˜3 monocolonies of selected tested fungus were inoculated in Sabouraud liquor culture medium, which was cultured for 18 hours at 37° C., and then it was diluted with 5% sterilized dried yeast liquor for next uses.
3. Healthy mice (lived in Kunming, China) weighed 18˜22 g were divided into groups randomly with 5 mice in each group. The fungal liquor 0.5 ml was injected into a mouse, which was observed continuously for 7 days after infection. Mortality of the mice was recorded, and the minimum fungal dose that caused the mice be with a 100% mortality was named as MLD, which also was regarded as infection fungal dose in vivo protective test.
All test drugs were confected to requested concentration with 0.5% CMC including Fluoroconazole and 4,4′-biisofraxidin.
Test mice were divided into groups randomly according to gender and weight, 5 males and 5 females in each group. The infection fungal liquor 0.5 ml was injected into each mouse at the abdominal region at 0.5 ml per mouse. Two hours prior to the infection and 4 hours after infection, mice were orally administered with Fluoroconazole or 4,4′-biisofraxidin by intragastric gavage at various concentration. The comparative group was tested at the same time. Mortality was recorded within 7 days after infection, and effective dosage at half (median effective dose, ED50) and 95% confidence limit were calculated by the Bliss's method. Fluoroconazole and 4,4′-biisofraxidin were tested on their in vivo protection activity on candida Albicans 02-6 infected mice, and ED50 was calculated by the Bliss's method at 95% confidence limit.

Aspergillus niger = assay: In vitro drug sensitivity MIC test; format: cell-based
Description: (§1) The tested fungi were confected to a suspension with normal saline, and further diluted to a suspension with the turbidity of more than 2.0 McFarland Standards (McF). Then, the suspension was diluted 100 times with normal saline, and diluted 10 times with RPMI1640, and the sample was diluted 2 times, which was cultured for 72 to 96 hours at a 96-well culture dish while being gently agitated and assayed for photoelectric colorimetric assay at 490 nm.
(§2) Tested fungi include Saccharomyces, candida Albicans 01-5, 01-1, 02-6, candida Albicans CMCC, Aspergillus niger, Cryptococcus neoformans, Trichophyton rubrum, and Trichophyton verrucosum and MIC Results were listed at Table 2.

Cryptococcus neoformans = assay: In vitro drug sensitivity MIC test; format: cell-based
Description: as §1, §2

Saccharomyces = assay: In vitro drug sensitivity MIC test; format: cell-based
Description: as §1, §2

Trichophyton rubrum = assay: In vitro drug sensitivity MIC test; format: cell-based
Description: as §1, §2

Trichophyton verrucosum = assay: In vitro drug sensitivity MIC test; format: cell-based
Description: as §1, §2

candida Albicans 01-1 = assay: In vitro drug sensitivity MIC test; format: cell-based
Description: as §1, §2

candida Albicans 01-5 = assay: In vitro drug sensitivity MIC test; format: cell-based
Description: as §1, §2

candida Albicans 02-6 [3] = assay: In vitro drug sensitivity MIC test; format: cell-based
Description: as §1, §2

candida Albicans CMCC = assay: In vitro drug sensitivity MIC test; format: cell-based
Description: as §1, §2

candida Albicans [4] = assay: In vitro drug sensitivity MIC test; format: cell-based
Description: as §1, §2

[5] = tested on: S. Typhimurium TA97, TA98, TA 100, and TA102; assay: Bacteria reverse mutation test; format: cell-based; details: without S9
Description: According to the conditions of mutation test in the Guide Compilation of New Medicament (Western Medicament) Before Clinic (Pharmacy, Pharmacology, and Toxicology) (Edition July 1993, Bureau of Pharmaceutical Policy, Chinese Department of Health), 4,4′-biisofraxidin was tested at a dosage of 5, 50, 500, 1000, and 5000 μg/dish in the system without S9.

CHL cell = assay: Chromosome aberration test of CHL mammal cell; format: cell-based; details: for mutagenicity: 24 hours, -S9
Description: The purpose of the Example was to assess whether 4,4′-biisofraxidin caused the chromosome aberration of CHL cell. Firstly, Median Inhibitory Concentration (IC50) was obtained by general method and regarded as the maximum dosage. Then, the maximum dosage was diluted at 0.5 time at multiple times to get three dosage groups. The experiment was conducted at a —S9 system (without hamster liver S9 system). […] The antifungal compound was added to the cultured cell directly for 24 hours in order to observe whether 4,4′-biisofraxidin caused chromosome aberration in CHL cell. […] Therefore, 4,4′-biisofraxidin was a weak mutagen at a relatively high dosage under the test conditions.

[6] = tested on: mice medulla polychromatic erythrocyte; assay: Micronucleus test of mice medulla; format: in vivo, ICR mice
Description: Seventy ICR mice were randomly divided into 7 groups with 10 mice per group having 5 males and 5 females in each group. The maximum tolerance dose (MTD) of the mice was more than 5000 mg/kg for 4,4′-biisofraxidin by intragastric gavage, so that the maximum dosage was 5000 mg/kg. Four dosage groups were set up with dosage amount of 5000, 2500, 1250, and 625 mg/kg, one negative and one positive control group. The intragastric gavage was carried out at once per day consecutively for 2 days. Samples were taken at 24 hours after the last intragastric administration and inspected under microscope.

[7] = Acute toxicity test, oral, ICR mice (Example 22); details: for mortality: single oral dose (5 g/kg for 4,4′-biisofraxidin)
Text: Acute toxicity of 4,4′-biisofraxidin and Fluoconazole were simultaneously evaluated and the toxicity reaction and mortality were observed and compared for values of LD50 for ICR mice which were orally administered with 4,4′-biisofraxidin or Fluoconazole.

[8] = Acute toxicity test in vivo in mice (Example 21); details: for death: after testing 14 days, 14 mice (4,4′-biisofraxidin), 4 mice (Fluoroconazole)
[9] = Comparison of liver toxicity, serum ALT/AST of ICR mice; format: in vivo; details: 1.6 g/kg oral, mean (values of each sample)
Description: ICR mice were orally administered with 4,4′-biisofraxidin or Fluoconazole at the same dosage of 1.6 g/kg, and blood samples were taken at 4 hours and 24 hours after the administration, and serum was separated from blood samples for testing liver indices of asparate aminotransferase test (AST) and alanine aminotransferase test (ALT).

[10] = drug dose 65.5 mg/kg, intragastric gavage
[11] = drug dose 89.2 mg/kg, intragastric gavage
[12] = drug dose 102.4 mg/kg, intragastric gavage
[13] = drug dose 128 mg/kg, intragastric gavage
[14] = drug dose 160 mg/kg, intragastric gavage
[15] = drug dose 200 mg/kg, intragastric gavage
[16] = candida Albicans, second strain without code (r8)

With 4,4′-biisofraxidin the inhibiting zone (candida Albicans [1]) was 10 mm, the “95% confidence limit of ED50” value (candida Albicans 02-6 [2]; Bliss's method) was “(127.97–130.7) mg/kg” and the ED50 (candida Albicans 02-6 [2]; Bliss's method, intragastric gavage) was 149.50 mg/kg. The “Survival rate (%)” value (candida Albicans 02-6 [2]; [10]) was 0%, the Survival (candida Albicans 02-6 [2]; [10]) was 0 and the “Survival rate (%)” value (candida Albicans 02-6 [2]; [11]) was 10%. The Survival (candida Albicans 02-6 [2]; [11]) was 1, the “Survival rate (%)” value (candida Albicans 02-6 [2]; [12]) was 20% and the Survival (candida Albicans 02-6 [2]; [12]) was 3. The “Survival rate (%)” value (candida Albicans 02-6 [2]; [13]) was 40%, the Survival (candida Albicans 02-6 [2]; [13]) was 4 and the “Survival rate (%)” value (candida Albicans 02-6 [2]; [14]) was 60%. The Survival (candida Albicans 02-6 [2]; [14]) was 6, the “Survival rate (%)” value (candida Albicans 02-6 [2]; [15]) was 70% and the Survival (candida Albicans 02-6 [2]; [15]) was 7. The “protective effect in vivo” value (candida Albicans 02-6 [2]; intragastric gavage) was “obvious protective effect”, the MIC (Aspergillus niger) was 128 µg/mL and the MIC (Cryptococcus neoformans) was 64 µg/mL. For the same compound, the MIC (Saccharomyces) was greater than 128 µg/mL, the MIC (Trichophyton rubrum) was 16 µg/mL and the MIC (Trichophyton verrucosum) was 128 µg/mL. For the same compound, the MIC (candida Albicans 01-1; candida Albicans 01-1) was 64 µg/mL, the MIC (candida Albicans 01-5; candida Albicans 01-5) was 64 µg/mL and the MIC (candida Albicans 02-6 [3]) was 32 µg/mL. For the same compound, the MIC (candida Albicans CMCC) was greater than 128 µg/mL, the MIC (candida Albicans [4]; candida Albican, summary in the conclusion) was no less than 128 µg/mL and the MIC (candida Albicans [4]; candida Albicans, first strain without code (r7)) was 64 µg/mL. The MIC (candida Albicans [4]; [16]) was greater than 128 µg/mL, the “effect on growth of bacteria” value ([5]; high dose 5000 μg/dish) was “inhibit the growth” and the gene mutation ([5]; other dosages) was “couldn't induce gene mutation”. The “effect on growth of bacteria” value ([5]; other four doses (5, 50, 500, 1000 μg/dish)) was “no obvious effect”, the “Median Inhibitory Concentration (IC50)” value (CHL cell; CHL cell) was 248 µg/mL and the mutagenicity (CHL cell; high dosage 248 μg/ml) was 12%. For the same compound, the mutagenicity (CHL cell; low to medium dosage (62, 124 μg/ml)) was 1%, the chromosome aberration conclusion (CHL cell; relatively high dosage) was “weak mutagen” and the micronucleus number ([6]; 5000, 2500, 1250, 625 mg/kg, intragastric, once per day for 2 days, 24 hours after last dose) was “no effect on inducing increase in micronucleus number”. The “maximum tolerance dose (MTD)” value ([6]; mice, intragastric gavage) was “more than 5000 mg/kg”, the toxicity reaction ([7]; single oral dose) was “no obvious toxicity reaction” and the mortality [7] was 0/10. For the same compound, the MTD ([7]; single oral dose, 14 days observation) was “higher than 5 g/kg”, the death [8] was “no death” and the MTD ([8]; mice, 14 days) was “more than 5 g/kg”. The “half lethal dose (LD50)” value ([8]; mice, 14 days) was “undetectable”.

With `OC(Cn1cncn1)(Cn1cncn1)c1ccc(F)cc1F` [Fluoroconazole, reference compound] the ED50 (candida Albicans 02-6 [2]; Candida albicans, Bliss's method, intragastric gavage, read-out: ED50) was 136 mg/kg, the “Survival rate (%)” value (candida Albicans 02-6 [2]; [10]) was 0% and the Survival (candida Albicans 02-6 [2]; [10]) was 0. For the same compound, the “Survival rate (%)” value (candida Albicans 02-6 [2]; [11]) was 20%, the Survival (candida Albicans 02-6 [2]; [11]) was 2 and the “Survival rate (%)” value (candida Albicans 02-6 [2]; [12]) was 40%. For the same compound, the Survival (candida Albicans 02-6 [2]; [12]) was 4, the “Survival rate (%)” value (candida Albicans 02-6 [2]; [13]) was 40% and the Survival (candida Albicans 02-6 [2]; [13]) was 4. The “Survival rate (%)” value (candida Albicans 02-6 [2]; [14]) was 60%, the Survival (candida Albicans 02-6 [2]; [14]) was 6 and the “Survival rate (%)” value (candida Albicans 02-6 [2]; [15]) was 80%. It also gave a Survival (candida Albicans 02-6 [2]; [15]) of 8, an MIC (Aspergillus niger) greater than 128 µg/mL and an MIC (Cryptococcus neoformans; read-out: MIC) of 16 µg/mL (≈ 52.2 µM). For the same compound, the MIC (Saccharomyces; read-out: MIC) was 64 µg/mL (≈ 209 µM), the MIC (Trichophyton rubrum; read-out: MIC) was 16 µg/mL (≈ 52.2 µM) and the MIC (Trichophyton verrucosum) was 128 µg/mL (≈ 418 µM). The MIC (candida Albicans 01-1; Candida albicans) was 128 µg/mL (≈ 418 µM), the MIC (candida Albicans 01-5; Candida albicans) was 128 µg/mL (≈ 418 µM) and the MIC (candida Albicans 02-6 [3]; read-out: MIC) was 64 µg/mL (≈ 209 µM). For the same compound, the MIC (candida Albicans CMCC; read-out: MIC) was 64 µg/mL (≈ 209 µM), the MIC (candida Albicans [4]; Candida albicans) was greater than 128 µg/mL and the MIC (candida Albicans [4]; [16]) was greater than 128 µg/mL. The toxicity reaction ([7]; single oral dose) was “dispirited and inert”, the mortality [7] was 2/4 and the “ALT (U/L)” value ([9]; 4 hours after treatment) was 84.5 (87, 82) U/L. For the same compound, the “AST (U/L)” value ([9]; 4 hours after treatment) was 189.5 (155, 224) U/L, the “ALT (U/L)” value ([9]; 24 hours after treatment) was 53.5 (40, 67) U/L and the “AST (U/L)” value ([9]; 24 hours after treatment) was 99 (73, 125) U/L. The LD50 at 14 days ([8]; ICR, mouse, in vivo, 1.6 g/kg) was roughly 1600 mg/kg, the death [8] was 2 and the “toxicity relative to 4,4′-biisofraxidin” value ([8]; mouse, in vivo) was “three times larger”.
